{
  "source": "patent US12643913B2",
  "about": "“Mcl-1 inhibitor formulations” (AMGEN INC., priority 2020, dated 2026)",
  "key": {"[1]": {"assay": "Clinical observations in the beagle dog PK study", "type": "in vivo, male beagle dogs", "settings": "3 mg/kg PO, individual dogs, listed as AMG 397 Form 1", "experimental": "(§1) Briefly, during each phase five male beagle dogs were assigned to each group of the study. All animals were fasted for at least eight hours prior to dosing and through the first four hours of blood sample collection for each phase. Food was returned within 30 minutes following collection of the last blood sample at the four-hour collection interval. Each animal in Phase 1, received a single oral (PO) gavage dose of the appropriate test article formulation as outlined in the study design Table 6. Oral gavage dosing formulations were continuously stirred throughout dosing. The gavage tube was rinsed with approximately 10 mL of tap water following dosing (prior to removal of the gavage tube). Following each study phase a 7-day washout period was allowed prior to the dosing of the next phase. The same five dogs were assigned to either group 1 or group 2 formulations for the duration of the study.\n(§2) Test Article Administration: A total of 10 male beagle dogs were initially assigned to study. All animals were fasted for at least eight hours prior to dosing and through the first four hours of blood sample collection for each phase, where applicable (food will be returned within 30 minutes following collection of the last blood sample at the four hour collection interval, where applicable). Total fasting time […] 24 hours.\nDifferent pre-treatments were assigned for each phase of the study to mimic several scenarios: • 1. No pre-treatment was administered for Phase 1 as it served as a control. • 2. During Phase 2, at 1 hour 54 minutes to 1 hour 58 minutes prior to dose administration, all animals were pretreated with two 20 mg (40 mg total) oral tablets of famotidine followed by a 10 mL dose of deionized water. […] This was used to determine the role of stomach pH on exposure. • 3. During Phases 3 and 4, at 30 to 38 minutes prior to dose administration, all animals were pretreated with a single intramuscular dose of pentagastrin in phosphate buffered saline, pH 7.4, at a dose level of 0.006 mg/kg and a dose volume of 0.05 mL/kg. The pentagastrin dose was used to ensure that the dogs stomach pH was normalized to pH ˜2.0 as it is known that the dogs stomach pH is often higher than that of humans under resting conditions. • 4. In addition, […], at 1 hour 3 minutes to 1 hour 6 minutes prior to dose administration and 4 hours 10 minutes to 4 hours 11 minutes following dose by oral gavage at a dose level of 3 mg/kg and a dose volume of 4 mL/kg. This final phase was used to study if P-gp played a role in absorption."}, "[2]": {"assay": "Pharmacokinetics after oral gavage to male beagle dogs with different pre-treatments (Amgen study 150528)", "type": "in vivo", "settings": "3 mg/kg PO; for Decrease in exposure / bioavailability with change of stomach pH: beagle dogs; for half-life: read-out: T½ (converted); for bioavailability: compared to Phase 1 of the same form, read-out: Relative % F", "experimental": "The pharmacokinetics of AMG 397 were assessed following oral administration to male beagle dogs as either a suspension of the crystalline hydrate form of AMG 397 or an amorphous suspension in 2% HPMC, 0.01% Tween 80. The full protocol is described in Amgen study number 150528. The goal of this study was to determine if the amorphous material would lead to increases in bioavailability and if variability in dosing could be reduced. In addition, oncology patients could be receiving acid-reducing agents as co-medication, so it is important to determine if exposure is reduced with elevated stomach pH and if an amorphous formulation of AMG 397 could overcome the drug-drug interaction (DDI). For the studies below, Form 1 is the crystalline hydrate form of AMG 397 and amorphous is the amorphous form of AMG 397.\nas §1, §2\n(§3) Each animal in Phase 1, Groups 1 and 2 received a single oral (PO) gavage dose of the appropriate test article formulation as outlined in the following study design table. Oral gavage dosing formulations was continuously stirred throughout dosing. The gavage tube was rinsed with approximately 10 mL of tap water following dosing (prior to removal of the gavage tube). No pre-treatment will be required for Phase 1.\nas §3, with “After a 7-day washout period, each” for “Each”, “2,” for “1,”, “land” for “1 and”, “were” for “was”, “Two hours prior to dosing, each animal received two 20 mg (40 mg total) oral tablets of famotidine followed by a 10 mL dose of deionized water.” for “No pre-treatment will be required for Phase 1.”\nAfter another 7-day washout period, each animal in Phase 3, Groups land 2 received a single oral (PO) gavage dose of the appropriate test article formulation as outlined in the following study design table. Oral gavage dosing formulations were continuously stirred throughout dosing. The gavage tube was rinsed with approximately 10 mL of tap water following dosing (prior to removal of the gavage tube). Thirty minutes prior to dosing, each animal received an intramuscular dose of pentagastrin in phosphate buffered saline at a dose level of 0.006 mg/kg and a dose volume of 0.05 mL/kg.\nAfter a final 7-day washout period, each animal in Phase 4, Groups 1 and 2 received a single oral (PO) gavage dose of the appropriate test article formulation as outlined in the following study design table. Oral gavage dosing formulations were continuously stirred throughout dosing. […]"}, "[3]": {"assay": "Moisture sorption profile (DVS)", "type": "physicochemical", "settings": "by 95% RH; listed as crystalline hydrate form of AMG 397", "experimental": "Moisture Sorption: Moisture sorption data was collected using a Surface Measurement Systems DVSAdvantage instrument. Equilibrium criteria were set at ±0.001% weight change in 10 minutes with a maximum equilibrium time of 380 minutes.\nMoisture Sorption: Moisture sorption data was collected using a Surface Measurement Systems DVSAdvantage instrument. Equilibrium criteria were set at ±0.001% weight change in 10 minutes with a maximum equilibrium time of 360 minutes."}, "[4]": {"settings": "Phase 1, no pre-treatment, male beagle dogs"}, "[5]": {"settings": "Phase 2, famotidine pre-treatment (stomach pH ~6.5), male beagle dogs"}, "[6]": {"settings": "male, beagle, dog, plasma, po, 3 mg/kg, Phase 3, pentagastrin pre-treatment (stomach pH ~2.0), male beagle dogs"}, "[7]": {"settings": "male, beagle, dog, plasma, po, 3 mg/kg, Phase 4, pentagastrin pre-treatment + P-gp inhibitor GF120918, male beagle dogs"}},
  "note": "“Also recorded” adds a separate entry of the source. Where two headings read alike, the source gives them in different places.",
  "data": [
    {"smiles": "CO[C@]1(CN2CCN3CCCC[C@@H]3C2)/C=C/C[C@H](C)[C@@H](C)S(=O)(=O)NC(=O)c2ccc3c(c2)N(C[C@@H]2CC[C@H]21)C[C@@]1(CCCc2cc(Cl)ccc21)CO3", "note": "[AMG 397 Crystalline Hydrate]", "values": [
      {"measurement": "Positive clinical findings (observation)", "setting": "[1]; Phase 2 (Days 8 to 14), famotidine pre-treatment", "result": "Limb function impaired"},
      {"measurement": "Positive clinical findings (observation)", "setting": "[1]; Phase 3 (Days 15 to 21), pentagastrin pre-treatment", "result": "White, frothy vomitus; also recorded: Limb function impaired; also recorded: Wet hair on entire body; also recorded: Inappetence"},
      {"measurement": "Positive clinical findings (observation)", "setting": "[1]; Phase 4 (Days 22 to 24), pentagastrin pre-treatment and inhibitor GF120918 pre- and post-treatment", "result": "Large amount of white,"},
      {"measurement": "AUCt", "setting": "[2]; [4]", "result": 5.5, "unit": "µM·h"},
      {"measurement": "Cl/F", "setting": "[2]; [4]", "result": 41.7, "unit": "mL/min/kg"},
      {"measurement": "Cmax", "setting": "[2]; [4]", "result": 230, "unit": "nM"},
      {"measurement": "Tmax", "setting": "[2]; [4]", "result": 12.4, "unit": "h"},
      {"measurement": "AUCt", "setting": "[2]; [5]", "result": 6.3, "unit": "µM·h"},
      {"measurement": "Cl/F", "setting": "[2]; [5]", "result": 43.3, "unit": "mL/min/kg"},
      {"measurement": "Cmax", "setting": "[2]; [5]", "result": 260, "unit": "nM"},
      {"measurement": "Cl/F", "setting": "[2]; Phase 3, pentagastrin pre-treatment (stomach pH ~2.0), male beagle dogs", "result": 13.8, "unit": "mL/min/kg"},
      {"measurement": "Decrease in exposure / bioavailability with change of stomach pH", "setting": "[2]; listed as crystalline hydrate form of AMG 397, 3 mg/kg", "result": "≤ 2", "unit": "fold"},
      {"measurement": "Decrease in exposure / bioavailability with change of stomach pH", "setting": "[2]; listed as crystalline hydrate form, 3 mg/kg", "result": 2, "unit": "fold"},
      {"measurement": "half-life", "setting": "[2]; male, beagle, dog, plasma, po, 3 mg/kg, Phase 1, no pre-treatment, male beagle dogs", "result": 17.3, "unit": "h"},
      {"measurement": "bioavailability", "setting": "[2]; male, beagle, dog, plasma, po, 3 mg/kg, Phase 1, no pre-treatment", "result": 100, "unit": "%"},
      {"measurement": "Tmax", "setting": "[2]; male, beagle, dog, plasma, po, 3 mg/kg, Phase 2, famotidine pre-treatment (stomach pH ~6.5), male beagle dogs, read-out: Tmax", "result": 12.8, "unit": "h"},
      {"measurement": "half-life", "setting": "[2]; male, beagle, dog, plasma, po, 3 mg/kg, Phase 2, famotidine pre-treatment (stomach pH ~6.5), male beagle dogs", "result": 16.5, "unit": "h"},
      {"measurement": "bioavailability", "setting": "[2]; male, beagle, dog, plasma, po, 3 mg/kg, Phase 2, famotidine pre-treatment", "result": 113, "unit": "%"},
      {"measurement": "AUC(0-t)", "setting": "[2]; [6]", "result": 11.3, "unit": "µM·h"},
      {"measurement": "Cmax", "setting": "[2]; [6]", "result": 450, "unit": "nM"},
      {"measurement": "Tmax", "setting": "[2]; male, beagle, dog, plasma, po, 3 mg/kg, Phase 3, pentagastrin pre-treatment (stomach pH ~2.0), male beagle dogs, read-out: Tmax", "result": 13.2, "unit": "h"},
      {"measurement": "half-life", "setting": "[2]; [6]", "result": 23.3, "unit": "h"},
      {"measurement": "AUC(0-t)", "setting": "[2]; [7]", "result": 16.3, "unit": "µM·h"},
      {"measurement": "CL/F", "setting": "[2]; [7]", "result": 5.17, "unit": "mL/min/kg"},
      {"measurement": "Cmax", "setting": "[2]; [7]", "result": 600, "unit": "nM"},
      {"measurement": "Tmax", "setting": "[2]; male, beagle, dog, plasma, po, 3 mg/kg, Phase 4, pentagastrin pre-treatment + P-gp inhibitor GF120918, male beagle dogs, read-out: Tmax", "result": 11.6, "unit": "h"},
      {"measurement": "half-life", "setting": "[2]; [7]", "result": 25, "unit": "h"},
      {"measurement": "Moisture sorption weight gain", "setting": "[3]", "result": 3.3, "unit": "%"}
    ]}
  ]
}
